According to patent US11179383B2 (Gilead Sciences, Inc., priority 2018, dated 2021):

Biological target: T1, α4β7 integrin (Homo sapiens, UniProt P13612+P26010)
T1 construct: monitoring the capture of α4β7 integrin expressing cells on a recombinant MadCAM-1 extracellular domain-coated plate; endogenous in cells; host or cells: RPMI8866 cells
T1 sequence (P13612 34-1032): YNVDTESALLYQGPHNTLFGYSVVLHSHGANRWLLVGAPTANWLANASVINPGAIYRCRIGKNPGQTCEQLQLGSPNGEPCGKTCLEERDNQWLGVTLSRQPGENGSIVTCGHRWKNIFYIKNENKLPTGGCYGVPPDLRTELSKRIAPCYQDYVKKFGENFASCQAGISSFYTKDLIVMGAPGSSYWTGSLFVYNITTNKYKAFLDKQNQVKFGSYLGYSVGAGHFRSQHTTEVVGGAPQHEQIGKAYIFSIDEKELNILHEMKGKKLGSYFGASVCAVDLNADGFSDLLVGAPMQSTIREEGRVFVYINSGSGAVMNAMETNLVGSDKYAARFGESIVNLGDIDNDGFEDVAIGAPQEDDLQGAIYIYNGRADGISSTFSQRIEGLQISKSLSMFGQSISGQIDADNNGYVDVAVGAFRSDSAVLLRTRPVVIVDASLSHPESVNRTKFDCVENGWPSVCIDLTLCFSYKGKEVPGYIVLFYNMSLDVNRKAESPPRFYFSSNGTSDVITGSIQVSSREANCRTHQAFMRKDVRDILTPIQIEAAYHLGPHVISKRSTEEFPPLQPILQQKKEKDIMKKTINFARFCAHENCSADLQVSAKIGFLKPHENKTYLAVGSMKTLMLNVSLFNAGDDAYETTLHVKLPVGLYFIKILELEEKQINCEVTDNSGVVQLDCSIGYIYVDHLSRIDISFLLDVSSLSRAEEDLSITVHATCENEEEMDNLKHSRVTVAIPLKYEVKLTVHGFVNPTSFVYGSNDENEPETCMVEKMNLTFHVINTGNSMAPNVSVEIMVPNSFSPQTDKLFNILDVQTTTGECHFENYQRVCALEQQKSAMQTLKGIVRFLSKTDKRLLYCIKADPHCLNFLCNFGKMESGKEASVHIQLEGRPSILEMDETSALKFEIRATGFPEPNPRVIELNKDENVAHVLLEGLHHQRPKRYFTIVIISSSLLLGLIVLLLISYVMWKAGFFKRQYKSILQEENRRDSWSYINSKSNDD
T1 sequence (P26010 20-798): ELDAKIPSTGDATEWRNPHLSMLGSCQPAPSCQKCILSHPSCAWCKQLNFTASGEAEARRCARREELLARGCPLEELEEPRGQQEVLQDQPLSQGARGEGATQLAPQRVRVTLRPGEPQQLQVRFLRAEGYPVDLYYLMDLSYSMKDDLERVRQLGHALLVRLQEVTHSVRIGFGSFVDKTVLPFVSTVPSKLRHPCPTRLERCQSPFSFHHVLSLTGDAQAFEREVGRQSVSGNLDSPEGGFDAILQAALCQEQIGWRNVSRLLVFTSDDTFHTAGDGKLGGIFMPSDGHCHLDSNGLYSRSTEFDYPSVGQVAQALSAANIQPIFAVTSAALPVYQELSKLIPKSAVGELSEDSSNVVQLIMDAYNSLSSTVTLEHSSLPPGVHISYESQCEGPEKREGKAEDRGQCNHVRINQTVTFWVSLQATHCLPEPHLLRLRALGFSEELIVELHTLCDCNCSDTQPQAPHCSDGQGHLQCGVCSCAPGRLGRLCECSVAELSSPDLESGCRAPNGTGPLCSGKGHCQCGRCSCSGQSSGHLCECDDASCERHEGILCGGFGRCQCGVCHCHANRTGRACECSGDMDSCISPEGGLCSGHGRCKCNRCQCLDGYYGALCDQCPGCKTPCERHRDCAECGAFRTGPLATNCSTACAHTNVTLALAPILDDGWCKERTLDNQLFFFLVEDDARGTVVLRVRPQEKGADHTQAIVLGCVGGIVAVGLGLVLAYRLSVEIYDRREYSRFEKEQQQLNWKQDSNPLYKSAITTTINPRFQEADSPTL
Assay: α4β7 Integrin Cell Capture Assay
Type: cell-based
Settings: capture of α4β7 integrin expressing RPMI8866 cells on recombinant MadCAM-1 extracellular domain-coated plate; DMEM+0.5% FBS+0.5 mM MnCl2; read-out: EC50 α4β7
Experimental: α4β7 Integrin Cell Capture Assay
The potency of inhibitors in preventing α4β7 integrin interaction with MadCAM-1 was measured by monitoring the capture of α4β7 integrin expressing cells on a recombinant MadCAM-1 extracellular domain-coated plate.
384-Well plates (Corning 3702) were coated with MadCAM-1 extracellular domain by dispensing 20 μL of MAdCAM-1 at 1.0 μg/mL per well and incubating overnight at 4° C. The plates were then washed with PBS and blocked with 3% BSA for 2 hours before being washed again.
RPMI8866 cells were spun down and re-suspended in assay medium (DMEM+0.5% FBS+0.5 mM MnCl2) at a density of 0.5×10^6 cells/mL. The cells were then dispensed (60 μL/well) to a 384-well plate (Greiner 781280) that was previously spotted with 60 nL of test compound per well. The plates were incubated at 37° C. for 1 hour. 50 μL of cells were transferred to the blocked, MadCAM-1-coated plates and incubated for 30 minutes at 37° C. 10 μL of 12% glutaraldehyde containing Hoechst 33342 (0.06 mg/mL) was added to the cells (2% glutaraldehyde and 0.01 mg/mL final concentrations). The plates were incubated for 90 minutes at room temperature. The plates were then washed 3 times with 70 μL of PBS per well and imaged on a Cellomics ArrayScan instrument. The cells that were bound to the plate were counted and plotted against the compound concentration to determine the EC50 of the test compounds.

Row | SMILES | EC50
1 | COc1cc(F)cc(Cl)c1-c1ccc(C[C@H](NC(=O)c2c(Cl)cccc2Cl)C(=O)O)c2ncccc12 (single isomer, unassigned) [Example 53] | 150 nM
2 | Cn1ccnc(-c2ccc(C[C@H](NC(=O)c3c(Cl)cccc3Cl)C(=O)O)c3ncccc23)c1=O [Example 27, (S)-2-(2,6-dichlorobenzamido)-3-(5-(4-methyl-3-oxo-3,4-dihydropyrazin-2-yl)quinolin-8-yl)propanoic acid] | 57.7 nM
3 | CCOCc1cc(OC)c(-c2ncc(C[C@H](NC(=O)c3c(F)cc(N[C@H](CC)C(F)(F)F)cc3F)C(=O)O)c3ccccc23)c(OC)c1 [Example 168, (S)-2-(2,6-difluoro-4-(((R)-1,1,1-trifluorobutan-2-yl)amino)benzamido)-3-(1-(4-(ethoxymethyl)-2,6-dimethoxyphenyl)isoquinolin-4-yl)propanoic acid] | 26.6 nM
4 | Cc1cc(C(F)(F)F)c(-c2ccc(C[C@H](NC(=O)c3c(Cl)cccc3Cl)C(=O)O)c3ncccc23)c(=O)n1C (single isomer, unassigned) [Example 60] | 2.7 nM
5 | CCOCc1cc(OC)c(-c2ccc(C[C@H](NC(=O)c3c(Cl)cccc3Cl)C(=O)O)c3nc(C)oc23)c(OC)c1 [Example 153, (S)-2-(2,6-dichlorobenzamido)-3-(7-(4-(ethoxymethyl)-2,6-dimethoxyphenyl)-2-methylbenzo[d]oxazol-4-yl)propanoic acid] | 28.4 nM
6 | O=C(N[C@@H](Cc1ccc(-c2c(Cl)cc(F)cc2Cl)c2cccnc12)C(=O)O)c1c(Cl)cccc1Cl [Example 7, (S)-3-(5-(2,6-dichloro-4-fluorophenyl)quinolin-8-yl)-2-(2,6-dichlorobenzamido)propanoic acid] | 522 nM
7 | Cn1c(=O)c(-c2ccc(C[C@H](NC(=O)c3c(Cl)cccc3Cl)C(=O)O)c3ncccc23)c(C(F)(F)F)c2ccccc21 [Example 59, (S)-2-(2,6-dichlorobenzamido)-3-(1-methyl-2-oxo-4-(trifluoromethyl)-1,2-dihydro-[3,5′-biquinolin]-8′-yl)propanoic acid] | 10.7 nM
8 | O=C(N[C@@H](Cc1ccc(-c2ncc3ccccc3c2Br)c2ccccc12)C(=O)O)c1c(F)cccc1F [Example 114, (S)-3-(4-(4-bromoisoquinolin-3-yl)naphthalen-1-yl)-2-(2,6-difluorobenzamido)propanoic acid] | 29.9 nM
9 | Cn1cc(F)cc(-c2ccc(C[C@H](NC(=O)c3c(Cl)cccc3Cl)C(=O)O)c3ncccc23)c1=O [Example 19, (S)-2-(2,6-dichlorobenzamido)-3-(5-(5-fluoro-1-methyl-2-oxo-1,2-dihydropyridin-3-yl)quinolin-8-yl)propanoic acid] | 26.3 nM
10 | COc1ncc(F)cc1-c1ccc(C[C@H](NC(=O)c2c(Cl)cccc2Cl)C(=O)O)c2ncccc12 [Example 28, (S)-2-(2,6-dichlorobenzamido)-3-(5-(5-fluoro-2-methoxypyridin-3-yl)quinolin-8-yl)propanoic acid] | 194 nM
11 | O=C(N[C@@H](Cc1ccc(-c2cc(F)c(F)cc2OC2CC2)c2cccnc12)C(=O)O)c1c(F)cccc1F [Example 83, (S)-3-(5-(2-cyclopropoxy-4,5-difluorophenyl)quinolin-8-yl)-2-(2,6-difluorobenzamido)propanoic acid] | 109 nM
12 | Cc1c(-c2ccc(C[C@H](NC(=O)c3c(Cl)cccc3Cl)C(=O)O)c3ncccc23)c(=O)n(C)c2cc(Cl)ccc12 [Example 74, (S)-3-(7-chloro-1,4-dimethyl-2-oxo-1,2-dihydro-[3,5′-biquinolin]-8′-yl)-2-(2,6-dichlorobenzamido)propanoic acid] | 131 nM
13 | Cc1cc(C(F)(F)F)c(-c2ccc(C[C@H](NC(=O)c3c(Cl)cccc3Cl)C(=O)O)c3ncccc23)c(=O)n1C (single isomer, unassigned) [Example 61] | 15.1 nM
14 | COc1cc(F)cc(C(F)(F)F)c1-c1ccc(C[C@H](NC(=O)c2c(Cl)cccc2Cl)C(=O)O)c2ncccc12 [Example 35, (2S)-2-(2,6-dichlorobenzamido)-3-(5-(4-fluoro-2-methoxy-6-(trifluoromethyl)phenyl)quinolin-8-yl)propanoic acid] | 53.5 nM
15 | COc1cc(F)c(F)cc1-c1ccc(C[C@H](NC(=O)c2c(Cl)cccc2Cl)C(=O)O)c2nccc(Cl)c12 [Example 94, (S)-3-(4-chloro-5-(4,5-difluoro-2-methoxyphenyl)quinolin-8-yl)-2-(2,6-dichlorobenzamido)propanoic acid] | 111 nM

These reach a lower EC50. Values come first.

Row | EC50 | SMILES
16 | 0.4 nM | CCOCc1cc(OC)c(-c2ccc(C[C@H](NC(=O)c3c(F)cc(NS(=O)(=O)c4ccc(-c5ccnc(F)c5)cc4)cc3F)C(=O)O)c3cnn(C)c23)c(OC)c1 (single isomer, unassigned) [Example 147]
17 | 0.5 nM | COc1cc(C)n(C)c(=O)c1-c1ccc(C[C@H](NC(=O)c2c(F)cc(N3CCOC[C@@H]3C(F)(F)F)cc2F)C(=O)O)c2ccccc12 (single isomer, unassigned) [Example 125]
18 | 0.3 nM | Cc1c(-c2ccc(C[C@H](NC(=O)c3c(F)cc(N4CCOC[C@@H]4C(F)(F)F)cc3F)C(=O)O)c3ccccc23)c(=O)n(C)c(=O)n1C [Example 138, (S)-2-(2,6-difluoro-4-((R)-3-(trifluoromethyl)morpholino)benzamido)-3-(4-(1,3,6-trimethyl-2,4-dioxo-1,2,3,4-tetrahydropyrimidin-5-yl)naphthalen-1-yl)propanoic acid]
19 | 1.3 nM | COc1cccc(OC)c1-c1ccc(C[C@H](NC(=O)c2c(F)cc(NS(=O)(=O)c3ccc(-n4cncn4)cc3)cc2F)C(=O)O)c2ccncc12 (single isomer, unassigned) [Example 164]
20 | 0.4 nM | Cc1cc(C)n(C)c(=O)c1-c1ccc(C[C@H](NC(=O)c2c(F)cc(N3CCOC[C@@H]3C(F)(F)F)cc2F)C(=O)O)c2ccccc12 (single isomer, unassigned) [Example 127]
21 | 2.1 nM | Cc1c(-c2ccc(C[C@H](NC(=O)c3c(Cl)cccc3Cl)C(=O)O)c3ccccc23)c(=O)n(C)c(=O)n1C (single isomer, unassigned) [Example 109]
22 | 0.9 nM | COc1cccc(OC)c1-c1ccc(CC(NC(=O)c2c(F)cc(NS(=O)(=O)c3ccc(-n4cncn4)cc3)cc2F)C(=O)O)c2cnccc12 (stereo not shown) [Example 163, 2-(4-((4-(1H-1,2,4-triazol-1-yl)phenyl)sulfonamido)-2,6-difluorobenzamido)-3-(5-(2,6-dimethoxyphenyl)isoquinolin-8-yl)propanoic acid]
